Data set [1] has as its system 769-P cells. In words: Cell viability with paclitaxel (MTT), 769-P. Type of data set: cell-based, human. Conditions: PXT alone, 100 nM, 72 h. The method, then:
(§1) To evaluate the inhibitory properties of the peptides directly on the human renal cancer cells, we firstly assessed the impact of Ac-PLVE-FMK and Ac-VLPE-FMK on the cell viability of 769-P and A498 cells to determine the working concentrations for further experiments. […] Further experiments were performed using a concentration of 20 μM. To understand if the peptides could affect the activity of caspase proteases, we tested their effect on cell viability in combination with the chemotherapeutic paclitaxel (PXT) in both the cell lines. […] Next, we evaluated the effect of the peptides on renal cancer cell proteolytic activity against the fluorogenic probe Ac-PLVQ-AMC. In this case, 769-p and A498 cells were treated for 30 min with Ac-PLVE-FMK or Ac-VLPE-FMK and were then exposed for 10 min to the substrate Ac-PLVQ-AMC prior fluorescence microscopy analysis (Figure 3c,d).
The cell number was evaluated by counting viable cells using the MTT (3-(4,5-dimethylthiazol-2-yl)-2,5-diphenyltetrazolium bromide) colorimetric assay. A total of 2 × 10^4 cells/well were seeded on independent 96-well plates for each time point (0, 24, 48, and 72 h), with five replicates and treated with two inhibitors (2.5–250 μM). Then, 10 µL of the MTT reagent was added to each well, and cells were incubated for another 5 h. Next, the absorbance value was measured using a CLARIOstar® Plus plate reader (BMG Labtech, Ortenberg, Germany) at 490 nm. Triplicate wells were assayed, and S.D.s were determined.
Figure S3. Combined effect of PXT and the inhibitors on 769‐P proliferation: 769‐P cells were treated with 100 nM of PXT alone or in combination with 20 μM of Ac‐PLVE and Ac‐VLPE and cell proliferation was measured after 24, 48, and 72 h via MTT assay. Data represent the mean (± S.D.) of three independent experiments, each performed in triplicate.
Figure S4. Spheroids size and circularity: (a,b) size and circularity of 769‐P and (c,d) A498 cells upon treatment with Ac‐PLVE‐FMK and Ac‐VLPE‐FMK. Data represent the mean (± S.D.) of three independent experiments, each performed in triplicate. […]

Data set [2] concerns A498 cells. In words: Cell mortality with paclitaxel, A498. Type of data set: cell-based, human. As to conditions: PXT alone (data not shown). On the procedure:
as §1
The cell number was evaluated by counting viable cells using the MTT (3-(4,5-dimethylthiazol-2-yl)-2,5-diphenyltetrazolium bromide) colorimetric assay. A total of 2 × 10^4 cells/well were seeded on independent 96-well plates for each time point (0, 24, 48, and 72 h), with five replicates and treated with two inhibitors (2.5–250 μM). […] Next, the absorbance value was measured using a CLARIOstar® Plus plate reader (BMG Labtech, Ortenberg, Germany) at 490 nm. Triplicate wells were assayed, and S.D.s were determined.

Data set [3] concerns pancreatic cells. As to conditions: 48 and 72 h; ref [58]; cited from earlier work. The source says: In general, Cts inhibitors cannot be considered very potent cytostatic molecules. H ...
Data set [4] deals with human recombinant CtsB. Put plainly: Fluorescent protease activity assay, recombinant CtsB. In kind it is biochemical. As to conditions: 20 nM CtsB, 50 μM substrate, no inhibitor. The method, then: (§2) Ac-PLVE-FMK and Ac-VLPE-FMK inhibitory properties were evaluated against human recombinant CtsL and B. These recombinant enzymes were expressed in E. coli via plasmid transformation and further purification, using nickel-nitrilotriacetic acid (Ni-NTA) sepharose. Gel zymography assay was used to provide a preliminary evaluation of the ability of these recombinant proteins to degrade the gelatin substrate previously embedded in the gel (Supplementary Figure S1). Following Coomassie staining, the Cts were detectable as single bands. As expected, a translucent area was evident, due to the substrate digestion in the proximity of the proteins. Then, the recombinant proteins were tested for their ability to digest the Triticain-α substrate Ac-PLVQ via fluorescent protease activity assay, previously optimized by our group. This probe was conjugated with the fluorogenic chromophore 7-amino-4-methylcoumarin (Ac-PLVQ-AMC). After proteolytic cleavage, it emits a detectable fluorescent signal.
(§3) Total RNA extract from retinoblastoma […] cells was used to obtain cDNA. A pair of oligonucleotides ([…] and […]) was used for the amplification of DNA fragment containing CtsB, the product of which was ligated into pET15b (Merck Millipore, Billerica, MA, USA) using NdeI and XhoI. DNA fragment containing CtsL was amplified using a pair of oligonucleotides ([…] and […]) and ligated into pET28a (+) (Merck Millipore, Billerica, MA, USA) using NheI and HindIII. […]
(§4) The activity of recombinant CtsL and B was detected by the hydrolysis of the fluorogenic substrate Ac-Pro-Leu-Val-Gln- 7-amino-4-methylcoumarin (AMC) (Pepmic Suzhou Jiangsu, China). […] The substrate was added to a final concentration of 50 μM, and its hydrolysis was continuously measured for 12 min using a CLARIOstar® Plus plate reader (BMG Labtech Ortenberg Baden-Württemberg, Germany) at excitation and emission wavelengths of 353 and 442 nm, respectively.

Data set [5] relates to human recombinant CtsL. In words: Fluorescent protease activity assay, recombinant CtsL. Conditions: 20 nM CtsL, 50 μM substrate, no inhibitor. In kind it is biochemical. On the procedure: as §2, §3, §4

On to `CC(=O)O[C@H]1C(=O)[C@@]2(C)[C@H]([C@H](OC(=O)c3ccccc3)[C@]3(O)C[C@H](OC(=O)[C@H](O)[C@@H](NC(=O)c4ccccc4)c4ccccc4)C(C)=C1C3(C)C)[C@]1(OC(C)=O)CO[C@@H]1C[C@@H]2O` [PXT, paclitaxel, reference compound], for which, in data set [1], the “Ability to kill cancer cells” value is recorded as “the ability of the PXT to kill cancer cells was evident after 72 h of treatment at a concentration of 100 nM”. Also, the Cell mortality entry in data set [2] is listed as “did not result in high mortality”. Turning to `CC(C)C[C@H](NC(=O)[C@H]1O[C@@H]1C(=O)O)C(=O)NCCCCN=C(N)N` [E64], the Cytotoxic effect result in data set [3] was “only a moderated cytotoxic effect, which reached a plateau phase after 48 and 72 h”. Turning to “Ac-Pro-Leu-Val-Gln- 7-amino-4-methylcoumarin (AMC) [Ac-PLVQ-AMC, fluorogenic Triticain-α substrate conjugated with 7-amino-4-methylcoumarin, reference compound]”, the Substrate cleavage result in data set [4] and in data set [5] was “able to cleave the probe” in each case.

Source of the values: PMC7281206, “Cysteine Cathepsins Inhibition Affects Their Expression and Human Renal Cancer Cell Phenotype” (Cancers, 2020).
